Reference: PubChem BioAssay AID248 (DTP/NCI, 2004)
Several values for one entry are separate records, joined by “and”; a condition that tells them apart may be missing. Equal values may be shown once. Toxic doses and inconclusive results are not listed.

Tested on: L1210 leukemia ip in BDF1 mice, survival T/C
Assay: NCI In Vivo Anticancer Drug Screen. Data for tumor model L1210 Leukemia (intraperitoneal) in B6D2F1 (BDF1) mice
Conditions: endpoint: mean survival time, higher = longer survival
Procedure, shortened: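 Antitumor effect is assessed in tumor-bearing animals. Survival in the compound arm is compared with a vehicle-dosed control arm and expressed as their quotient.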

[1] = dose: 100.0 mg/kg/injection, schedule: Q01DX009 (ip), vehicle: Klucel (hydroxypropylcellulose) (HPC)
[2] = dose: 100.0 mg/kg/injection, schedule: Q04DX002 (ip), vehicle: Klucel (hydroxypropylcellulose) (HPC)
[3] = dose: 100.0 mg/kg/injection, schedule: Q04DX003 (ip), vehicle: Klucel (hydroxypropylcellulose) (HPC)
[4] = dose: 200.0 mg/kg/injection, schedule: Q01DX009 (ip), vehicle: Klucel (hydroxypropylcellulose) (HPC)
[5] = dose: 200.0 mg/kg/injection, schedule: Q04DX002 (ip), vehicle: Klucel (hydroxypropylcellulose) (HPC)
[6] = dose: 200.0 mg/kg/injection, schedule: Q04DX003 (ip), vehicle: Klucel (hydroxypropylcellulose) (HPC)
[7] = dose: 400.0 mg/kg/injection, schedule: Q01DX009 (ip), vehicle: Klucel (hydroxypropylcellulose) (HPC)
[8] = dose: 400.0 mg/kg/injection, schedule: Q04DX002 (ip), vehicle: Klucel (hydroxypropylcellulose) (HPC)
[9] = dose: 400.0 mg/kg/injection, schedule: Q04DX003 (ip), vehicle: Klucel (hydroxypropylcellulose) (HPC)
[10] = dose: 50.0 mg/kg/injection, schedule: Q01DX001 (ip), vehicle: carboxymethylcellulose (CMC)
[11] = dose: 100.0 mg/kg/injection, schedule: Q01DX001 (ip), vehicle: carboxymethylcellulose (CMC)
[12] = dose: 200.0 mg/kg/injection, schedule: Q01DX001 (ip), vehicle: carboxymethylcellulose (CMC)
[13] = dose: 400.0 mg/kg/injection, schedule: Q01DX001 (ip), vehicle: carboxymethylcellulose (CMC)
[14] = dose: 100.0 mg/kg/injection, schedule: Q01DX001 (ip), vehicle: saline
[15] = dose: 200.0 mg/kg/injection, schedule: Q01DX001 (ip), vehicle: saline
[16] = dose: 400.0 mg/kg/injection, schedule: Q01DX001 (ip), vehicle: saline
[17] = dose: 100.0 mg/kg/injection, schedule: Q01DX001 (ip), vehicle: saline with Tween-80
[18] = dose: 200.0 mg/kg/injection, schedule: Q01DX001 (ip), vehicle: saline with Tween-80
[19] = dose: 400.0 mg/kg/injection, schedule: Q01DX001 (ip), vehicle: saline with Tween-80
[20] = dose: 50.0 mg/kg/injection, schedule: Q01DX001 (ip), vehicle: saline
[21] = dose: 100.0 mg/kg/injection, schedule: Q01DX009 (ip), vehicle: saline with Tween-80
[22] = dose: 200.0 mg/kg/injection, schedule: Q01DX009 (ip), vehicle: saline with Tween-80
[23] = dose: 400.0 mg/kg/injection, schedule: Q01DX009 (ip), vehicle: saline with Tween-80

SMILES: COC(=O)/C(=C\c1ccc(OC)cc1)CC(=O)O
- T/C (dose: 100.0 mg/kg/injection, schedule: Q01DX001 (ip), vehicle: Klucel (hydroxypropylcellulose) (HPC)): 96 % of control
- T/C [1]: 101 % of control and 104 % of control
- T/C [2]: 98 % of control and 100 % of control
- T/C [3]: 90 % of control
- T/C (dose: 200.0 mg/kg/injection, schedule: Q01DX001 (ip), vehicle: Klucel (hydroxypropylcellulose) (HPC)): 93 % of control
- T/C [4]: 95 % of control and 101 % of control
- T/C [5]: 95 % of control and 113 % of control
- T/C [6]: 97 % of control
- T/C (dose: 400.0 mg/kg/injection, schedule: Q01DX001 (ip), vehicle: Klucel (hydroxypropylcellulose) (HPC)): 104 % of control
- T/C [7]: 93 % of control and 108 % of control
- T/C [8]: 102 % of control and 103 % of control
- T/C [9]: 97 % of control

SMILES: OCCCc1cc(Br)ccc1O
- T/C [10]: 105 % of control
- T/C [11]: 100 % of control
- T/C [12]: 100 % of control
- T/C [13]: 92 % of control

SMILES: Cc1ccc(NC(=O)OC(C)C)c(C)c1
- T/C [1]: 100 % of control
- T/C [4]: 100 % of control
- T/C [7]: 96 % of control

SMILES: N#Cc1ccccc1C(=O)O
- T/C [14]: 95 % of control
- T/C [15]: 102 % of control
- T/C [16]: 96 % of control

SMILES: CC1Nc2ccccc2NC1C (centres undefined)
- T/C [14]: 98 % of control

SMILES: CCC/C=C/CC1CC2CC(C1C)C2(C)C (centres undefined)
- T/C (dose: 50.0 mg/kg/injection, schedule: Q01DX009 (ip), vehicle: other): 97 % of control
- T/C (dose: 100.0 mg/kg/injection, schedule: Q01DX009 (ip), vehicle: other): 101 % of control
- T/C (dose: 200.0 mg/kg/injection, schedule: Q01DX009 (ip), vehicle: other): 90 % of control

SMILES: C1CCN(SN2CCCCC2)CC1
- T/C (dose: 100.0 mg/kg/injection, schedule: Q01DX009 (ip), vehicle: saline): 100 % of control
- T/C (dose: 200.0 mg/kg/injection, schedule: Q01DX009 (ip), vehicle: saline): 102 % of control

SMILES: O=C(O)c1ccc(OC(F)(F)C(F)Cl)cc1 (centres undefined)
- T/C (dose: 50.0 mg/kg/injection, schedule: Q01DX009 (ip), vehicle: Klucel (hydroxypropylcellulose) (HPC)): 100 % of control
- T/C [1]: 98 % of control

SMILES: CN(Cc1cnc2nc(N[Si](C)(C)C)nc(N[Si](C)(C)C)c2n1)c1ccc(C(=O)NC(CCC(=O)O[Si](C)(C)C)C(=O)O[Si](C)(C)C)cc1 (centres undefined)
- T/C (dose: 0.62 mg/kg/injection, schedule: Q01DX009 (ip), vehicle: saline): 112 % of control
- T/C (dose: 1.25 mg/kg/injection, schedule: Q01DX009 (ip), vehicle: saline with Tween-80): 164 % of control
- T/C (dose: 1.25 mg/kg/injection, schedule: Q01DX009 (ip), vehicle: saline): 119 % of control
- T/C (dose: 2.5 mg/kg/injection, schedule: Q01DX009 (ip), vehicle: saline with Tween-80): 187 % of control
- T/C (dose: 5.0 mg/kg/injection, schedule: Q01DX009 (ip), vehicle: saline with Tween-80): 152 % of control
- T/C (dose: 5.0 mg/kg/injection, schedule: Q01DX009 (ip), vehicle: saline): 183 % of control
- T/C (dose: 10.0 mg/kg/injection, schedule: Q01DX009 (ip), vehicle: saline): 204 % of control

SMILES: N#Cc1ccccc1OCCCOc1ccccc1C#N
- T/C (dose: 75.0 mg/kg/injection, schedule: Q01DX009 (ip), vehicle: Klucel (hydroxypropylcellulose) (HPC)): 100 % of control
- T/C (dose: 150.0 mg/kg/injection, schedule: Q01DX009 (ip), vehicle: Klucel (hydroxypropylcellulose) (HPC)): 99 % of control
- T/C (dose: 300.0 mg/kg/injection, schedule: Q01DX009 (ip), vehicle: Klucel (hydroxypropylcellulose) (HPC)): 106 % of control

SMILES: Cc1ccc(S(=O)(=O)OCC2OCOC2C2OCOC2CI)cc1 (centres undefined)
- T/C [17]: 101 % of control
- T/C [18]: 101 % of control
- T/C [19]: 93 % of control

SMILES: CC1(C)SC2C(NC(=O)Cc3ccccc3)C(=O)N2C1C(=O)O (centres undefined)
- T/C [20]: 104 % of control
- T/C [14]: 98 % of control and 107 % of control
- T/C (dose: 100.0 mg/kg/injection, schedule: Q04DX003 (ip), vehicle: saline): 101 % of control
- T/C [15]: 96 % of control and 107 % of control
- T/C (dose: 200.0 mg/kg/injection, schedule: Q04DX003 (ip), vehicle: saline): 104 % of control
- T/C [16]: 98 % of control
- T/C (dose: 400.0 mg/kg/injection, schedule: Q04DX003 (ip), vehicle: saline): 104 % of control

SMILES: CCCC[As](=O)(O)CCO
- T/C (dose: 25.0 mg/kg/injection, schedule: Q04DX003 (ip), vehicle: saline with Tween-80): 102 % of control
- T/C (dose: 50.0 mg/kg/injection, schedule: Q04DX003 (ip), vehicle: saline with Tween-80): 94 % of control

SMILES: CCCCNC(=O)Nc1ccc(N(C)C)cc1
- T/C (dose: 50.0 mg/kg/injection, schedule: Q01DX009 (ip), vehicle: saline with Tween-80): 95 % of control
- T/C [21]: 92 % of control
- T/C (dose: 100.0 mg/kg/injection, schedule: Q04DX003 (ip), vehicle: saline with Tween-80): 102 % of control
- T/C [22]: 90 % of control
- T/C (dose: 200.0 mg/kg/injection, schedule: Q04DX003 (ip), vehicle: saline with Tween-80): 100 % of control
- T/C (dose: 400.0 mg/kg/injection, schedule: Q04DX003 (ip), vehicle: saline with Tween-80): 109 % of control

SMILES: CC(C)CC(CO)Cc1nc2ccccc2[nH]1 (centres undefined)
- T/C (dose: 50.0 mg/kg/injection, schedule: Q04DX002 (ip), vehicle: Klucel (hydroxypropylcellulose) (HPC)): 95 % of control
- T/C [2]: 95 % of control
- T/C (dose: 100.0 mg/kg/injection, schedule: Q04DX002 (ip), vehicle: other): 105 % of control
- T/C (dose: 100.0 mg/kg/injection, schedule: Q04DX003 (ip), vehicle: other): 97 % of control
- T/C [5]: 93 % of control and 92 % of control
- T/C (dose: 200.0 mg/kg/injection, schedule: Q04DX002 (ip), vehicle: other): 91 % of control and 92 % of control
- T/C (dose: 200.0 mg/kg/injection, schedule: Q04DX003 (ip), vehicle: other): 94 % of control
- T/C [8]: 105 % of control
- T/C (dose: 400.0 mg/kg/injection, schedule: Q04DX002 (ip), vehicle: other): 102 % of control

SMILES: CCCCC(=O)N/N=C/c1ccc(N(C)C)cc1
- T/C [14]: 91 % of control
- T/C [15]: 87 % of control
- T/C [16]: 95 % of control

SMILES: COc1cc(NC(C)=O)c2ncccc2c1NC(C)=O
- T/C [10]: 96 % of control
- T/C [11]: 102 % of control
- T/C [12]: 96 % of control
- T/C [13]: 94 % of control

SMILES: CN(C)CN1C(=O)c2ccccc2C1=O
- T/C [1]: 103 % of control
- T/C [4]: 100 % of control
- T/C [7]: 104 % of control

SMILES: COc1ccc(-c2nc(-c3cccc(O)c3)[nH]c2-c2ccc(OC)cc2)cc1
- T/C [21]: 93 % of control
- T/C [22]: 98 % of control
- T/C [23]: 105 % of control

SMILES: Nc1nc2nc[nH]c2c(Cl)c1Br
- T/C [2]: 104 % of control
- T/C [5]: 115 % of control

SMILES: O=[N+]([O-])c1ccc(C=Nc2ccccc2CO)s1
- T/C [3]: 103 % of control
- T/C [6]: 104 % of control
- T/C [9]: 93 % of control

SMILES: CCOC(=O)c1cnc(SC)[nH]c1=O
- T/C [20]: 92 % of control
- T/C [14]: 95 % of control
- T/C [15]: 98 % of control
- T/C [16]: 98 % of control

SMILES: F[Si](c1ccccc1)(c1ccccc1)c1cccc2ccccc12
- T/C [17]: 96 % of control
- T/C [21]: 98 % of control
- T/C [18]: 102 % of control
- T/C [22]: 92 % of control
- T/C [19]: 94 % of control
- T/C [23]: 93 % of control

SMILES: COc1ccc(C=NC2C(O)OC(CO)C(O)C2O)cc1 (centres undefined)
- T/C [14]: 106 % of control
- T/C [15]: 87 % of control
- T/C [16]: 93 % of control

SMILES: O=NO.O=N[O-].O=N[O-].[Co+3].[NH-]CC[N-]CCO.[NH-]CC[N-]CCO
- T/C (dose: 25.0 mg/kg/injection, schedule: Q01DX009 (ip), vehicle: water): 107 % of control
- T/C (dose: 25.0 mg/kg/injection, schedule: Q04DX003 (ip), vehicle: water): 100 % of control
- T/C (dose: 50.0 mg/kg/injection, schedule: Q01DX009 (ip), vehicle: water): 106 % of control and 107 % of control
- T/C (dose: 50.0 mg/kg/injection, schedule: Q04DX003 (ip), vehicle: water): 103 % of control
- T/C (dose: 100.0 mg/kg/injection, schedule: Q01DX009 (ip), vehicle: water): 111 % of control
- T/C (dose: 100.0 mg/kg/injection, schedule: Q04DX003 (ip), vehicle: water): 98 % of control and 101 % of control
